# Earlier results in publication PMC4269829 (Cancer cell, 2014).
# Columns and labels:
# [1] = test system: ALK variant with L1196M mutation; details: crizotinib-resistant L1196M mutation; ref Friboulet et al., 2014
# [2] = test system: ALK variant with I1171T mutation; details: crizotinib-resistant I1171T mutation; ref Friboulet et al., 2014
# ALK with F1174 mutation = details: ref Friboulet et al., 2014
smiles,measurement,setting,value
Cc1cc(Nc2ncc(Cl)c(Nc3ccccc3S(=O)(=O)C(C)C)n2)c(OC(C)C)cc1C1CCNCC1 [ceritinib],inhibition of ALK variant (in words),[1],inhibit
same,inhibition of ALK variant (in words),[2],inhibit
same,overcoming resistance of ALK mutation (in words),ALK with F1174 mutation,not to overcome resistance
